This is an account of results in patent US20020132812A1, “Oral hypoglycaemic agents” (priority 2000, published 2002).

Experiment [1] deals with intact mouse islets. Put plainly: Insulin release from intact mouse islets (ELISA). In kind it is cell-based. The following applies: 100 μM compound, 60 min incubation. As to the method: Intact pancreatic islets were isolated from fed NMRI mice (15-18 g) as previously described (Fuhlendorff et al., Diabetes, Vol. 47 (3) pp. 345-351, 1998). Insulin release was measured from groups of 10 size-matched islets, cultured overnight in RPMI-1640 tissue culture medium containing 1% GlutaMAX™ (Gibco BRL),1% penicillin/streptomycin, 7.5% NaHCO3 and 10% new-born calf serum. The islets were washed for 20 minutes in Krebs Ringer Buffer consisting of 115 mM NaCl, 4.7 mM KCl, 2.6 mM CaCl2, 1.2 mM KH2PO4, 1.2 mM MgSO4, 20 mM HEPES, 2 mM glutamine, 5 mM NaHCO3, 0.2% human serum albumin and 1% penicillin/streptomycin) and 2.5 mM, 5 mM or 10 mM D-glucose. Afterwashing, the islet were incubated for one hour at +37° C. in Krebs Ringer Buffer containing the test compound at 100 μM and glucose at 2.5 mM, 5 mM or 10 mM. After the one-hour incubation, the medium was aspirated and kept at −20° C. until assayed for insulin using the following ELISA technique. Immuno 96 well paltes (MaxiSorPTM, NUNC, Denmark) were coated over night at 4° C. with a rabbit-anti-guinea pig-lgG (Dako) antibody diluted 1:1000 in 0.1 M NaHCO3 (pH 9.8). After washing 4 times in 0.15 M NaCl and 0.005% Tween-20 the plates were incubated with guinea pig-anti-insulin diluted in phosphate buffered saline (incubation buffer; pH 7.4) containing 0.1% Tween-20 and 0.5% human serum albumin over night. After washing the sambles were incubated for 1.5 h with relevant samples and peroxidase-insulin (Sigma) diluted 1:10000 in PBS-DIL. The samples we-were then washed and developed with TMBPlus-substrated as described by the manufacture (KEM EN TEC, Denmark). The amount of insulin was quantified from a standard curve after reading the samples at 450 nm.
Elevating the external glucose concentration from 2.5 mM to 5 mM was not associated with an increase in insulin release whereas a 90% stimulation was observed following application of 10 mM glucose (P<0.05; n=8).

Experiment [2] concerns isolated perfused rat pancreas. Put plainly: Insulin release from isolated perfused rat pancreas. As to the method:
The effect of the compounds of the invention on the insulin release from isolated perfused rat pancreas can be investigated as exemplified below with the title compound of Example 2 (compound (Ex 2). In the example described, the investigation is carried out at 2.8 mM and 8.3 mM glucose.
Male Sprague Dawley rats (body weight around 300 g) were anaesthetised with a mixture of Hypnorm® (Janssen Pharma) and Dormicum® (Roche) and the pancreas was cannulated and isolated a described by Sturis et al., Am. J. Physiol. 269, E786-E792, 1995. The organ was placed at 37° C. in a humidified perfusion chamber and perfused with a […] gassed bicarbonated Krebs Ringer, 4% Dextran buffer from a pump delivering 71% of the total volume and from a pump delivering 29% volume of the same buffer with added BSA (0.2% final concentration) and glucose (2.8 mM or 8.3 mM final concentration). The 29% pump also delivered compund (Ex 2) at 10^−5 M in the interval t=20-40 min and at 10^−4 M in the interval t=60-80 min. The pancreata were acclimatised for 20 min before start of sampling at 1 fraction of ca 1900 μl/min for 100 min. Aliquots of 200 μl were frozen away at −20° C. for subsequent insulin ELISA using guinea pig anti-insulin antibodies. The results are shown in FIG. 7 and are expressed as fmol insulin released per pancreas per min. Each plot represents one pancreas, except 8.3 mM glucose alone mean of n=2. […] In the pancreas infused with 8.3 mM glucose and compound (Ex 2) there was an initial noise in the interval t=0-20 min which was due to a mechanical problem with the tubing. […] When 10^−4 M compound (Ex 2) was added at t=60 min there was a classic first-phase insulin release peaking at 3000 fmol/min, followed by second-phase release. […] We have evidence that non-reversal may be due to the low BSA concentration (0.2%) in the perfusate.
In the pancreas perfused with compound (Ex 2) at 2.8 mM glucose, the insulin secretion was only about 10% of that seen at 8.3 mM glucose (max. 250 fmol/min) with 10^−4 M compound (Ex 2) while the control pancreas secretion was flat at ca 20 fmol/min.

The structures appear in SMILES notation.

`COc1cccc(C(CC2=NCCN2)c2ccccn2)c1` (single isomer, unassigned; (-)) [compound (Ex 2), (−)-2-(2-(4,5-Dihydro-1H-imidazol-2-yl)-1-(3-methoxyphenyl)ethyl)pyridine]: the “effect on insulin release” value in experiment [1] (2.5 mM glucose) and in experiment [1] (5 mM glucose) was “does not affect insulin release” each time. Moreover, the “stimulation of insulin secretion” value in experiment [1] (10 mM glucose, P<0.01, n=8) is 220%. Moreover, the “insulin secretion, max.” value in experiment [2] (2.8 mM glucose, 10^-4 M compound, control pancreas ca 20 fmol/min) is recorded as 250 fmol/min. The “first-phase insulin release, peak” value in experiment [2] (8.3 mM glucose, 10^-4 M compound added at t=60 min, 8.3 mM glucose alone 300 up to ca 700 fmol/min) amounted to 3000 fmol/min. Also, in experiment [2] (8.3 mM glucose, 10^-5 M compound, t=20-40 min), the “effect on insulin secretion (in words)” value was “small increase in insulin secretion”. Also, in experiment [2] (10^-4 M compound), the “insulin secretion at 2.8 mM glucose as share of that seen at 8.3 mM glucose” value is given as “about 10%”.
